Data reported in ChEMBL document CHEMBL3046907, “Microwave-assisted synthesis of pyrido[1,2-a]benzimidazole derivatives of -aryloxyquinoline and their antimicrobial and antituberculosis activities” (2013).
Converted amounts (≈) assume the structure as drawn.

What was measured:
Assay type in all cases: functional
[1] = system: Mycobacterium tuberculosis; assay: Growth inhibition of Mycobacterium tuberculosis H37Rv at 6.25 ug/ml after 28 days by Lowenstein-Jensen method; conditions: 672 h, read-out: GI
Candida albicans = assay: Antifungal activity against Candida albicans MTCC 227 after overnight incubation by broth microdilution method
Aspergillus fumigatus = assay: Antifungal activity against Aspergillus fumigatus MTCC 3008 after overnight incubation by broth microdilution method
Vibrio cholerae = assay: Antibacterial activity against Vibrio cholerae MTCC 3906 after overnight incubation by broth microdilution method
Salmonella typhi = assay: Antibacterial activity against Salmonella enterica subsp. enterica serovar Typhi MTCC 98 after overnight incubation by broth microdilution method
Escherichia coli = assay: Antibacterial activity against Escherichia coli MTCC 443 after overnight incubation by broth microdilution method
Clostridium tetani = assay: Antibacterial activity against Clostridium tetani MTCC 449 after overnight incubation by broth microdilution method
Streptococcus pneumoniae = assay: Antibacterial activity against Streptococcus pneumoniae MTCC 1936 after overnight incubation by broth microdilution method
Bacillus subtilis = assay: Antibacterial activity against Bacillus subtilis MTCC 441 after overnight incubation by broth microdilution method
[2] = system: Mycobacterium tuberculosis; assay: Antitubercular activity against Mycobacterium tuberculosis H37Rv after 28 days by Lowenstein-Jensen method; conditions: 672 h

Structure (SMILES)	inhibition of growth at 6.25 µg/mL [1] [%]	MIC99 (Candida albicans) [mg/L]	MIC99 (Aspergillus fumigatus) [mg/L]	MIC99 (Vibrio cholerae) [mg/L]	MIC99 (Salmonella typhi) [mg/L]	MIC99 (Escherichia coli) [mg/L]	MIC99 (Clostridium tetani) [mg/L]	MIC99 (Streptococcus pneumoniae) [mg/L]	MIC99 (Bacillus subtilis) [mg/L]	MIC [2] [mg/L]
Cc1ccc2nc(Oc3ccccc3)c(-c3c(C#N)c(N)n4c(nc5ccccc54)c3C#N)cc2c1	19	250 (≈ 536 µM)	1000 (≈ 2140 µM)	200 (≈ 429 µM)	100 (≈ 214 µM)	62.5 (≈ 134 µM)	250 (≈ 536 µM)	200 (≈ 429 µM)	200 (≈ 429 µM)	
Cc1ccc(Oc2nc3ccc(C)cc3cc2-c2c(C#N)c(N)n3c(nc4ccccc43)c2C#N)cc1	32	1000 (≈ 2080 µM)	> 1000	100 (≈ 208 µM)	125 (≈ 260 µM)	100 (≈ 208 µM)	500 (≈ 1040 µM)	250 (≈ 520 µM)	100 (≈ 208 µM)	
COc1ccc(Oc2nc3ccc(C)cc3cc2-c2c(C#N)c(N)n3c(nc4ccccc43)c2C#N)cc1	62	1000 (≈ 2010 µM)	> 1000	200 (≈ 403 µM)	200 (≈ 403 µM)	250 (≈ 503 µM)	500 (≈ 1010 µM)	100 (≈ 201 µM)	125 (≈ 252 µM)	
Cc1ccc2nc(Oc3ccc(F)cc3)c(-c3c(C#N)c(N)n4c(nc5ccccc54)c3C#N)cc2c1	94	250 (≈ 516 µM)	500 (≈ 1030 µM)	250 (≈ 516 µM)	250 (≈ 516 µM)	200 (≈ 413 µM)	250 (≈ 516 µM)	200 (≈ 413 µM)	250 (≈ 516 µM)	25 (≈ 51.6 µM)
COc1ccc2nc(Oc3ccccc3)c(-c3c(C#N)c(N)n4c(nc5ccccc54)c3C#N)cc2c1	46	500 (≈ 1040 µM)	1000 (≈ 2070 µM)	200 (≈ 415 µM)	200 (≈ 415 µM)	250 (≈ 518 µM)	100 (≈ 207 µM)	250 (≈ 518 µM)	250 (≈ 518 µM)	
COc1ccc2nc(Oc3ccc(C)cc3)c(-c3c(C#N)c(N)n4c(nc5ccccc54)c3C#N)cc2c1	58	500 (≈ 1010 µM)	> 1000	250 (≈ 503 µM)	250 (≈ 503 µM)	125 (≈ 252 µM)	125 (≈ 252 µM)	500 (≈ 1010 µM)	200 (≈ 403 µM)	
COc1ccc(Oc2nc3ccc(OC)cc3cc2-c2c(C#N)c(N)n3c(nc4ccccc43)c2C#N)cc1	79	> 1000	250 (≈ 488 µM)	125 (≈ 244 µM)	200 (≈ 390 µM)	125 (≈ 244 µM)	200 (≈ 390 µM)	500 (≈ 976 µM)	250 (≈ 488 µM)	
COc1ccc2nc(Oc3ccc(F)cc3)c(-c3c(C#N)c(N)n4c(nc5ccccc54)c3C#N)cc2c1	86	> 1000	500 (≈ 999 µM)	200 (≈ 400 µM)	500 (≈ 999 µM)	200 (≈ 400 µM)	200 (≈ 400 µM)	500 (≈ 999 µM)	200 (≈ 400 µM)	
